Data taken from ChEMBL document CHEMBL5649166, “RIP3 induces apoptosis independent of pronecrotic kinase activity” (Mol Cell, 2014).

How the values were obtained:
[1] = biological target: Serine/threonine-protein kinase PLK3 (Homo sapiens) (UniProt Q9H4B4); assay: Residual activity of human PLK3 using casein as substrate at 1 uM in presence of 32P-ATP by Hotspot assay relative to control
[2] = biological target: Mast/stem cell growth factor receptor Kit (Homo sapiens) (UniProt P10721); assay: Residual activity of human c-Kit using poly[Glu:Tyr] (4:1) as substrate at 1 uM in presence of 32P-ATP by Hotspot assay relative to control
Chain of Mast/stem cell growth factor receptor Kit (Homo sapiens) (P10721 whole entry): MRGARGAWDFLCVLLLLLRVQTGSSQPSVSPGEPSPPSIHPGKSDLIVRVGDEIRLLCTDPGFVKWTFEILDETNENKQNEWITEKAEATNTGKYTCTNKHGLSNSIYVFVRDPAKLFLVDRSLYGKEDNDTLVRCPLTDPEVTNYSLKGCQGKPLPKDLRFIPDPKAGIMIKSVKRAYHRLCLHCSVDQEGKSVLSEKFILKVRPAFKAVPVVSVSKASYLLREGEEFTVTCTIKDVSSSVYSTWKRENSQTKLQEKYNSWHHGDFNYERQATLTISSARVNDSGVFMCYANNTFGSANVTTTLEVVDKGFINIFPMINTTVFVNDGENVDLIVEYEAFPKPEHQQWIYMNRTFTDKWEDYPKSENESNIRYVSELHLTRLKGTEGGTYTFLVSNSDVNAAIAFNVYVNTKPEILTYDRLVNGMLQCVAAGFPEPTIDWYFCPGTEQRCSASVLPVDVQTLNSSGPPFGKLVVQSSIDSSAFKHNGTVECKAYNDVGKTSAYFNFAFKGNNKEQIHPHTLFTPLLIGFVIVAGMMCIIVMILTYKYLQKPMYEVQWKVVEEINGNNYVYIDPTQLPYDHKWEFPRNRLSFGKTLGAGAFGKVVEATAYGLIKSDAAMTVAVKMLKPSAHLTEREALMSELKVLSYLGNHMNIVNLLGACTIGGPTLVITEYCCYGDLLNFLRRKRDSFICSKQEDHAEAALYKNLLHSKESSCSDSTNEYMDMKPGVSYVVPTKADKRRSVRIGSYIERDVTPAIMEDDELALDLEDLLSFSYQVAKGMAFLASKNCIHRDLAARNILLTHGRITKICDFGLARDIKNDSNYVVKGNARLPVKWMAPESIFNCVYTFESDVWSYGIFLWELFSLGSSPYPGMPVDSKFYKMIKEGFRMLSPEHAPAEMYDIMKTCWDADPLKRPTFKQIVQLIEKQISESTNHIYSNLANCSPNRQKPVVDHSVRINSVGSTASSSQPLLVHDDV

[3] = biological target: T1, Mitogen-activated protein kinase kinase kinase 7 (Homo sapiens) (UniProt O43318); assay: Inhibition of human TAK1 using casein as substrate at 1 uM in presence of 32P-ATP by Hotspot assay relative to control; values are per cent of control
T1 sequence (whole entry): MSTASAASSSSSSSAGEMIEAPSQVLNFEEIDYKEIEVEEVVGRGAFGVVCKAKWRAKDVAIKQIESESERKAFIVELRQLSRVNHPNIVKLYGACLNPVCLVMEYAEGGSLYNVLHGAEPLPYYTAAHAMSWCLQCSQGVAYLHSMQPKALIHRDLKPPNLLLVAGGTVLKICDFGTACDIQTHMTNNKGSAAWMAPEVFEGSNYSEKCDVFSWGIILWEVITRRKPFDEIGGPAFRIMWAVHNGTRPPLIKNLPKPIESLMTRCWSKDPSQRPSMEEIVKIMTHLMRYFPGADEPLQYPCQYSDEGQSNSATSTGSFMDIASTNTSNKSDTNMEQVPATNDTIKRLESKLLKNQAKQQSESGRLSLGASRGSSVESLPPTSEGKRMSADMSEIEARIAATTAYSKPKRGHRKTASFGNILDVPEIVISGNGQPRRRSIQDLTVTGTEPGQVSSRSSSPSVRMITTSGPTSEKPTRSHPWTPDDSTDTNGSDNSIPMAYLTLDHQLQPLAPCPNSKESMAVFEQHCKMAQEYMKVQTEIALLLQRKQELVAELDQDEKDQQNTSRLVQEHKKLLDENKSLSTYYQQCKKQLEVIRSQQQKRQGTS

[4] = biological target: Ribosomal protein S6 kinase beta-1 (Homo sapiens) (UniProt P23443); assay: Inhibition of human p70S6K/RPS6KB1 using KKRNRTLTK as substrate at 1 uM in presence of 32P-ATP by Hotspot assay relative to control; values are per cent of control
Chain of Ribosomal protein S6 kinase beta-1 (Homo sapiens) (P23443 whole entry, looked up): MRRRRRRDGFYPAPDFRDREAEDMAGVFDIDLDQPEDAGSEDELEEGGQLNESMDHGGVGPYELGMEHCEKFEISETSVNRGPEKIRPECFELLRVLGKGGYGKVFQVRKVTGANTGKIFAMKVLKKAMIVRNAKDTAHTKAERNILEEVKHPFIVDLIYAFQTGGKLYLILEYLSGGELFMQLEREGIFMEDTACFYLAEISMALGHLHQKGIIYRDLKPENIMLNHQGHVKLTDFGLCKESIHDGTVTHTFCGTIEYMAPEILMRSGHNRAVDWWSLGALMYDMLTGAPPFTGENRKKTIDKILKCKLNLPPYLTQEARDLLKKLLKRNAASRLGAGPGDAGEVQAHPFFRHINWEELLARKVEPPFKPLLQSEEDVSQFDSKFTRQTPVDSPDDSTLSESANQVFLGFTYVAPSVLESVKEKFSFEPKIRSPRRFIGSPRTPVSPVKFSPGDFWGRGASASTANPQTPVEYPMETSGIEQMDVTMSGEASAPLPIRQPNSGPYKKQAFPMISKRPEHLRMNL

[5] = biological target: Dual specificity protein kinase CLK1 (Homo sapiens) (UniProt P49759); assay: Inhibition of human CLK1 using myelin basic protein as substrate at 1 uM in presence of 32P-ATP by Hotspot assay relative to control; values are per cent of control
Chain of Dual specificity protein kinase CLK1 (Homo sapiens) (P49759 whole entry, looked up): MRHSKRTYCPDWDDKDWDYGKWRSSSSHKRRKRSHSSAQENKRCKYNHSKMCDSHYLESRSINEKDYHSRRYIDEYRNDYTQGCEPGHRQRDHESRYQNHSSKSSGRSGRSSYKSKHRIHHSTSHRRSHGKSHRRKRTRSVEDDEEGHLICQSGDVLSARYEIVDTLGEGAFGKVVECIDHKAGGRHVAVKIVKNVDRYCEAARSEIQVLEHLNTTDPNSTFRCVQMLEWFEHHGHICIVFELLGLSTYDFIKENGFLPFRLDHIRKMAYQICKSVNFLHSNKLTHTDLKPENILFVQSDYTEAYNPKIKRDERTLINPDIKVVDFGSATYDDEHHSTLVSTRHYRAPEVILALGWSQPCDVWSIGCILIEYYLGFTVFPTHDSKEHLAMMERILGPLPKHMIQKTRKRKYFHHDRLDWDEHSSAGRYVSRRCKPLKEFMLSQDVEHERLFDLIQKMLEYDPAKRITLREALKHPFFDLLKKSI

[6] = biological target: Serine/threonine-protein kinase WNK3 (Homo sapiens) (UniProt Q9BYP7); assay: Inhibition of human WNK3 using myelin basic protein as substrate at 1 uM in presence of 32P-ATP by Hotspot assay relative to control; values are per cent of control
[7] = biological target: Tyrosine-protein kinase Fes/Fps (Homo sapiens) (UniProt P07332); assay: Inhibition of human FES/FPS using poly[Glu:Tyr] (4:1) as substrate at 1 uM in presence of 32P-ATP by Hotspot assay relative to control; values are per cent of control
Chain of Tyrosine-protein kinase Fes/Fps (Homo sapiens) (P07332 whole entry): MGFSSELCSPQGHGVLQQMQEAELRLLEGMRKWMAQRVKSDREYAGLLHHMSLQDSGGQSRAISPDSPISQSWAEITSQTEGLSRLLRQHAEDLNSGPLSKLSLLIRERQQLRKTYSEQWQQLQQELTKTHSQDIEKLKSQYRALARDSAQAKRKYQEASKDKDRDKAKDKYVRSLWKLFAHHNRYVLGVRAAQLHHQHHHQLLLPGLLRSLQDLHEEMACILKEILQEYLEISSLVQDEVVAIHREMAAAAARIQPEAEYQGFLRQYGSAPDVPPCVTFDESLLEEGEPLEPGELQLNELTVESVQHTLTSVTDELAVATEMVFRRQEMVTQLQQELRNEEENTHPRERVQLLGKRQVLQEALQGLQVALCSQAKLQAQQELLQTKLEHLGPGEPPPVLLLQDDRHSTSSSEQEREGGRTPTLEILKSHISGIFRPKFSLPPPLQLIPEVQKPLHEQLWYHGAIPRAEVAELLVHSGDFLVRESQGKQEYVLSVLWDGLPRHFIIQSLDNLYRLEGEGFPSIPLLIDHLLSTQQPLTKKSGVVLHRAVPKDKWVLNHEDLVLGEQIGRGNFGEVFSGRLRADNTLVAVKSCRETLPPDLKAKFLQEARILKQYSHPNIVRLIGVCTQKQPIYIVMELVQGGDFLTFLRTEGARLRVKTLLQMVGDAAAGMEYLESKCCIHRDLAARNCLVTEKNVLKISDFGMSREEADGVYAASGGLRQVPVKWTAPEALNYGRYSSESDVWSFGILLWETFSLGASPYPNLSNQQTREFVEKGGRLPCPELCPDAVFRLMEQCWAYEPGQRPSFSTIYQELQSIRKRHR

[8] = biological target: Tyrosine-protein kinase FRK (Homo sapiens) (UniProt P42685); assay: Inhibition of human FRK/PTK5 using poly[Glu:Tyr] (4:1) as substrate at 1 uM in presence of 32P-ATP by Hotspot assay relative to control; values are per cent of control
Chain of Tyrosine-protein kinase FRK (Homo sapiens) (P42685 whole entry): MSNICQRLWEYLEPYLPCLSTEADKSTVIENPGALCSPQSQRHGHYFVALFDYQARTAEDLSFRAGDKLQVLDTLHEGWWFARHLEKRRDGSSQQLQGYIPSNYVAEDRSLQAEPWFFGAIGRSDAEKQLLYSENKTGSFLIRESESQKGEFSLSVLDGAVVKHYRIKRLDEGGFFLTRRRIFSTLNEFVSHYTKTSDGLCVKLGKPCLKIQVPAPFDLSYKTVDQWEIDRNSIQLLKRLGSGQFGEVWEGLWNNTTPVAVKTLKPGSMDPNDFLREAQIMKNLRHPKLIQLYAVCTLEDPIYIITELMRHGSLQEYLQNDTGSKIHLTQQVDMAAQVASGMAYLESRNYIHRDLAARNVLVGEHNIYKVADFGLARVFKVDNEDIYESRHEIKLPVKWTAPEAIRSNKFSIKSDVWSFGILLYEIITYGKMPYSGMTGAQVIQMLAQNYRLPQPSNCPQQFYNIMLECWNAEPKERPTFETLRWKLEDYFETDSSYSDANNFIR

[9] = biological target: MAP/microtubule affinity-regulating kinase 3 (Homo sapiens) (UniProt P27448); assay: Inhibition of human MARK3 using KKKVSRSGLYRSPSMPENLNRPR as substrate at 1 uM in presence of 32P-ATP by Hotspot assay relative to control; values are per cent of control
Chain of MAP/microtubule affinity-regulating kinase 3 (Homo sapiens) (P27448 whole entry, looked up): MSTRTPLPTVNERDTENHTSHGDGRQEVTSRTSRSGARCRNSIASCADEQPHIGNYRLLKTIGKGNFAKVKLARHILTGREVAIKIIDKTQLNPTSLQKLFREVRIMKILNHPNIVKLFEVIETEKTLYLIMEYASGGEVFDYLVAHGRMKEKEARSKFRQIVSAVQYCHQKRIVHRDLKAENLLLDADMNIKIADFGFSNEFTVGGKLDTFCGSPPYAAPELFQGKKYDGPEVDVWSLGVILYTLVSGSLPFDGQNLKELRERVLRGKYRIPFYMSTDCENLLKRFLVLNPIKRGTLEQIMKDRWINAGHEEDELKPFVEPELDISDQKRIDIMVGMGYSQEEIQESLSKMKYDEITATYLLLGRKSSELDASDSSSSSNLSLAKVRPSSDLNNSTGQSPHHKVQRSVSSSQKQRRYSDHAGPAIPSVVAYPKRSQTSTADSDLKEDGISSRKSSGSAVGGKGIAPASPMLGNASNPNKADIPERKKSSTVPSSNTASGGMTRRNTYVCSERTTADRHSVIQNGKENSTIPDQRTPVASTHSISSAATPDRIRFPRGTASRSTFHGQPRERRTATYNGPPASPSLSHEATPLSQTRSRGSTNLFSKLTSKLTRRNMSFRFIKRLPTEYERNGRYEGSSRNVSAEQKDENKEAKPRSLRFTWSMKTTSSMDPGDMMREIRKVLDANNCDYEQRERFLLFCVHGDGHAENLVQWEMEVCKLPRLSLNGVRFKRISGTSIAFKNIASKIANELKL

[10] = biological target: T2, Inhibitor of nuclear factor kappa-B kinase subunit beta (Homo sapiens) (UniProt O14920); assay: Inhibition of human IKKb/IKBKB using KKKKERLLDDRHDSGLDSMKDEE as substrate at 1 uM in presence of 32P-ATP by Hotspot assay relative to control; values are per cent of control
T2 sequence (whole entry): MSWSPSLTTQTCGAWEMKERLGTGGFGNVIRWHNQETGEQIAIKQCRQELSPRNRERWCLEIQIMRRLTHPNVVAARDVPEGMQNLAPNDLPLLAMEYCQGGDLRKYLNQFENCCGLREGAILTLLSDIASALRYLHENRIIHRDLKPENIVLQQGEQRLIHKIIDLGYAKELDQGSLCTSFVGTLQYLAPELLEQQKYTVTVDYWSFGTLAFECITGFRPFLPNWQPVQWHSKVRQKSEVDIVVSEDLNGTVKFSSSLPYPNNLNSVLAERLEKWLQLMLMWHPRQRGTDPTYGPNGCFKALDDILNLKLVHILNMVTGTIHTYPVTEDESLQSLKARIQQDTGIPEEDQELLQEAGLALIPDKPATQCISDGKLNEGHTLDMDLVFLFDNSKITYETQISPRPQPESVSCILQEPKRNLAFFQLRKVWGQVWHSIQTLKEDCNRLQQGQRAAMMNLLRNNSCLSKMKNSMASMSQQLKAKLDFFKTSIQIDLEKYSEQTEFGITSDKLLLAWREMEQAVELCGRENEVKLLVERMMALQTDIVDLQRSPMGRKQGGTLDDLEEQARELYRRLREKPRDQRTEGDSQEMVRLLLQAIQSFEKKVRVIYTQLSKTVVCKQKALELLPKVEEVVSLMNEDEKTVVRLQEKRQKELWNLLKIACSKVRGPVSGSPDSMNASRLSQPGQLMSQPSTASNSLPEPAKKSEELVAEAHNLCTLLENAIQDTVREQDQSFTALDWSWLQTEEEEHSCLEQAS

[11] = biological target: CDK9/cyclin T1 (Homo sapiens) (UniProt O60563+P50750); assay: Inhibition of human CDK9/cyclin T1 using KTFCGTPEYLAPEVRREPRILSEEEQEMFRDFDYIADWC as substrate at 1 uM in presence of 32P-ATP by Hotspot assay relative to control; values are per cent of control

Chain of Serine/threonine-protein kinase PLK3 (Homo sapiens) (Q9H4B4 whole entry, looked up): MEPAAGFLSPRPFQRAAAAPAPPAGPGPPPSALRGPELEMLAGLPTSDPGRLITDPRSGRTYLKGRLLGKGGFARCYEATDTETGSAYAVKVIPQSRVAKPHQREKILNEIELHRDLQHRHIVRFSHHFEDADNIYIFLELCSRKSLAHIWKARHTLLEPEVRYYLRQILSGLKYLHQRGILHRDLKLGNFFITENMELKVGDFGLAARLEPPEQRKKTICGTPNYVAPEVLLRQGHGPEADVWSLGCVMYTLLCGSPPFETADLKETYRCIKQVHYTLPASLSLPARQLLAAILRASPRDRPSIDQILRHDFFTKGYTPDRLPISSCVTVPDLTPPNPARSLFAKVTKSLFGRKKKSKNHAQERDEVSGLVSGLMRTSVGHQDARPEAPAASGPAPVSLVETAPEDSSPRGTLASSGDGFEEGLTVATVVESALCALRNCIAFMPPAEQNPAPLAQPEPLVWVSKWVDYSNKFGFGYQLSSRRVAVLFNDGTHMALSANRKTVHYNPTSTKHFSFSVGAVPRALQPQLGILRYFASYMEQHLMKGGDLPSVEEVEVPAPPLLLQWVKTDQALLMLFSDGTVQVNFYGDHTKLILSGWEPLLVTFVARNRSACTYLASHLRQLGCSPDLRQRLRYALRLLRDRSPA

For `Cc1cc(-c2cnc(N)c3c(-c4ccc5scnc5c4)csc23)n(C)n1`, the residual activity [1] was 91.7%, the residual activity [2] was 41.5% and the residual activity [3] was 96.2%. It also gave a residual activity [4] of 93.6%, a residual activity [5] of 74.7% and a residual activity [6] of 83%. The residual activity [7] was 95%, the residual activity [8] was 65.3% and the residual activity [9] was 98.2%. The residual activity [10] was 104% and the residual activity [11] was 96.2%.
In the case of `CNC(=O)c1ccc2c(c1)ncn2-c1ccc(CC(=O)OC(C)(C)C)cc1`, the residual activity [1] was 106%, the residual activity [2] was 74.4% and the residual activity [3] was 106%. The residual activity [4] was 99.1%, the residual activity [5] was 95.4% and the residual activity [6] was 99.9%. For the same compound, the residual activity [7] was 98.1%, the residual activity [8] was 90.8% and the residual activity [9] was 108%. The residual activity [10] was 90.2% and the residual activity [11] was 91.3%.
Compound `CC(C)S(=O)(=O)c1ccc2nccc(Nc3ccc4scnc4c3)c2c1` has a residual activity [1] of 102%, a residual activity [2] of 95.8% and a residual activity [3] of 97.6%. The residual activity [4] was 108%, the residual activity [5] was 97.6% and the residual activity [6] was 104%. The residual activity [7] was 86.1%, the residual activity [8] was 33.5% and the residual activity [9] was 106%. The residual activity [10] was 93.3% and the residual activity [11] was 96.6%.
